From patent publication US20070231919A1, “Method for detecting the effect of a toxic substance using sub-mitochondrial particle” (SAMSUNG ELECTRONICS CO., LTD., priority 2005, published 2007)

System: electron transport system of SMP (sub-mitochondrial particle)
Test: pH change caused by SMP after contact with the sample and addition of NADH as external electron donor
Type: biochemical
Details: for pH change rate: control about 0.17 per minute
Protocol: First of all, a large quantity of SMPs were prepared by sonicating mitochondria.
Thereafter, the test tubes 1 to 3 were prepared, wherein 10 ml of a 2 mM KCl solution (control solution) was added to the test tube 1, 10 ml of 10% ethanol dissolved in the control solution was added to the test tube 2, and 10 ml of 20% ethanol dissolved in the same was added to the test tube 3. SMPs prepared above were added to each test tube at a final concentration of 1.4 mg/ml.
Next, 0.1 mM of NADH that acts as an external electron donor was added to each test tube at the same time, and the pH change in each test tube was measured for 5 minutes by using a pH meter.
In order to examine whether the method of the present invention is sensitive to only a toxic substance, the experiment was carried out according to the same method as described in Example 1 except that the sample prepared by dissolving 20% sorbitol in a 2 mM KCl solution was used.

SMILES	pH change rate (10% ethanol (FIG. 5))	pH increase for 5 minutes (10% ethanol in 2 mM KCl, SMP 1.4 mg/ml, 0.1 mM NADH, pH meter, control increased about 0.9)	pH change for 5 minutes (20% ethanol in 2 mM KCl, SMP 1.4 mg/ml, 0.1 mM NADH, pH meter)	pH change rate (20% ethanol, the relatively strong toxic substance (FIG. 5))	pH change compared with control (20% sorbitol in 2 mM KCl, SMP 1.4 mg/ml, 0.1 mM NADH, 5 minutes)
CCO [ethanol]	lower than 0.1 per minute	about 0.4	almost no pH change	lower than 0.02 per minute	
OC[C@@H](O)[C@@H](O)[C@H](O)[C@@H](O)CO [sorbitol]					almost identical to that of a control
